Experimental data reported in PubChem BioAssay AID256 (DTP/NCI, 2004).
Values joined by “and” are separate entries in the source; they are usually repeats but may differ in a detail not shown here. Equal values may be shown once. Toxic doses and inconclusive results are not listed. How the source made its calls: active means survival T/C of 150% or more; inactive means T/C below 125% in these data.

Test system: CD2F1 mice, L1210 leukemia ip, survival T/C
Assay: NCI In Vivo Anticancer Drug Screen. Data for tumor model L1210 Leukemia (intraperitoneal) in CD2F1 (CDF1) mice
Details: higher = longer survival
Outline: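 Activity against a transplanted murine tumor was judged by comparing the compound group with a vehicle group. The outcome in the treated animals was divided by that in the controls.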

[1] = endpoint: mean survival time, dose: 100.0 mg/kg/injection, schedule: Q04DX003 (ip), vehicle: saline with Tween-80
[2] = endpoint: mean survival time, dose: 200.0 mg/kg/injection, schedule: Q04DX003 (ip), vehicle: saline with Tween-80
[3] = endpoint: mean survival time, dose: 100.0 mg/kg/injection, schedule: Q01DX009 (ip), vehicle: saline
[4] = endpoint: mean survival time, dose: 100.0 mg/kg/injection, schedule: Q04DX003 (ip), vehicle: saline
[5] = endpoint: mean survival time, dose: 200.0 mg/kg/injection, schedule: Q01DX009 (ip), vehicle: saline
[6] = endpoint: mean survival time, dose: 25.0 mg/kg/injection, schedule: Q04DX002 (ip), vehicle: saline with Tween-80
[7] = endpoint: mean survival time, dose: 100.0 mg/kg/injection, schedule: Q04DX002 (ip), vehicle: saline with Tween-80
[8] = endpoint: mean survival time, dose: 200.0 mg/kg/injection, schedule: Q04DX002 (ip), vehicle: saline with Tween-80
[9] = endpoint: mean survival time, dose: 25.0 mg/kg/injection, schedule: Q04DX003 (ip), vehicle: saline
[10] = endpoint: mean survival time, dose: 50.0 mg/kg/injection, schedule: Q04DX003 (ip), vehicle: saline
[11] = endpoint: mean survival time, dose: 50.0 mg/kg/injection, schedule: Q01DX009 (ip), vehicle: saline
[12] = endpoint: mean survival time, dose: 100.0 mg/kg/injection, schedule: Q01DX001 (ip), vehicle: saline with Tween-80
[13] = endpoint: mean survival time, dose: 400.0 mg/kg/injection, schedule: Q01DX001 (ip), vehicle: saline with Tween-80
[14] = endpoint: mean survival time, dose: 200.0 mg/kg/injection, schedule: Q01DX001 (ip), vehicle: saline with Tween-80

Measured: T/C

FC1(F)C(I)=C(I)C1(F)F
inactive: endpoint: mean survival time, dose: 75.0 mg/kg/injection, schedule: Q01DX001 (ip), vehicle: saline 97 % of control | endpoint: mean survival time, dose: 150.0 mg/kg/injection, schedule: Q01DX001 (ip), vehicle: saline 103 % of control | endpoint: mean survival time, dose: 300.0 mg/kg/injection, schedule: Q01DX001 (ip), vehicle: saline 105 % of control

COC(=O)CCCc1c[nH]c2ccccc12
inactive: endpoint: mean survival time, dose: 100.0 mg/kg/injection, schedule: Q04DX003 (ip), vehicle: other 101 % of control | endpoint: mean survival time, dose: 200.0 mg/kg/injection, schedule: Q04DX003 (ip), vehicle: other 115 % of control | endpoint: mean survival time, dose: 400.0 mg/kg/injection, schedule: Q04DX003 (ip), vehicle: other 94 % of control

C[CH2][Ge]([CH2]C)[CH2]C.C[CH2][Ge]([CH2]C)[CH2]C
inactive: endpoint: mean survival time, dose: 50.0 mg/kg/injection, schedule: Q04DX003 (ip), vehicle: saline with Tween-80 104 % of control | [1] 100 % of control | [2] 104 % of control

Cc1cccc(=N)n1CCC(=O)O
inactive: [3] 95 % of control | [4] 112 % of control | [5] 98 % of control | endpoint: mean survival time, dose: 200.0 mg/kg/injection, schedule: Q04DX003 (ip), vehicle: saline 94 % of control | endpoint: mean survival time, dose: 400.0 mg/kg/injection, schedule: Q01DX009 (ip), vehicle: saline 95 % of control | endpoint: mean survival time, dose: 400.0 mg/kg/injection, schedule: Q04DX003 (ip), vehicle: saline 96 % of control

COC(=O)c1ccccc1C(=O)c1n[nH]c2ccccc12
inactive: [6] 103 % of control | endpoint: mean survival time, dose: 50.0 mg/kg/injection, schedule: Q04DX002 (ip), vehicle: saline with Tween-80 106 % of control | [7] 106 % of control | [8] 106 % of control

c1cc(-n2nnc3cnccc32)ccn1
inactive: [9] 102 % of control | [10] 104 % of control

CCOC(=O)C1=C(C)NC(=O)NN1C(=O)OCC
inactive: endpoint: mean survival time, dose: 12.5 mg/kg/injection, schedule: Q01DX009 (ip), vehicle: saline 94 % of control | endpoint: mean survival time, dose: 25.0 mg/kg/injection, schedule: Q01DX009 (ip), vehicle: saline 87 % of control | [11] 94 % of control

O=C1Nc2ccc3c4c(ccc1c24)CC3
inactive: [12] 105 % of control | [13] 94 % of control

C[Si](C)C(Cl)Cl
inactive: endpoint: mean survival time, dose: 75.0 mg/kg/injection, schedule: Q01DX009 (ip), vehicle: saline with Tween-80 96 % of control | endpoint: mean survival time, dose: 150.0 mg/kg/injection, schedule: Q01DX009 (ip), vehicle: saline with Tween-80 98 % of control | endpoint: mean survival time, dose: 300.0 mg/kg/injection, schedule: Q01DX009 (ip), vehicle: saline with Tween-80 102 % of control

O=C(Cl)c1ccccc1/C=C/c1ccc([N+](=O)[O-])cc1
inactive: [12] 105 % of control | [14] 103 % of control | [13] 96 % of control

CC(=O)N=C1C=C(NC(C)=O)C(=O)c2ncccc21
inactive: endpoint: mean survival time, dose: 6.25 mg/kg/injection, schedule: Q04DX002 (ip), vehicle: saline with Tween-80 95 % of control | endpoint: mean survival time, dose: 12.5 mg/kg/injection, schedule: Q04DX002 (ip), vehicle: saline with Tween-80 119 % of control | [6] 119 % of control

CC(C)C(C)CCC(C)C1CCC2=C3CCC4CC(O)CCC4(C)C3CCC21C (stereo not drawn)
inactive: endpoint: mean survival time, dose: 75.0 mg/kg/injection, schedule: Q01DX001 (ip), vehicle: saline with Tween-80 89 % of control | endpoint: mean survival time, dose: 150.0 mg/kg/injection, schedule: Q01DX001 (ip), vehicle: saline with Tween-80 92 % of control | endpoint: mean survival time, dose: 300.0 mg/kg/injection, schedule: Q01DX001 (ip), vehicle: saline with Tween-80 100 % of control

CC(C)CC(N)C(=O)O (stereo not drawn) (tested in a mixture with another compound)
inactive: endpoint: median survival time, dose: 3.13 mg/kg/injection, schedule: Q04DX002 (ip), vehicle: saline 111 % of control and 108 % of control | endpoint: median survival time, dose: 6.25 mg/kg/injection, schedule: Q04DX002 (ip), vehicle: saline 105 % of control and 100 % of control and 111 % of control | endpoint: median survival time, dose: 12.5 mg/kg/injection, schedule: Q04DX002 (ip), vehicle: saline 100 % of control and 105 % of control | endpoint: median survival time, dose: 25.0 mg/kg/injection, schedule: Q04DX002 (ip), vehicle: saline 100 % of control and 105 % of control | endpoint: median survival time, dose: 50.0 mg/kg/injection, schedule: Q04DX002 (ip), vehicle: saline 111 % of control and 100 % of control and 108 % of control | endpoint: median survival time, dose: 100.0 mg/kg/injection, schedule: Q04DX002 (ip), vehicle: saline 105 % of control | endpoint: median survival time, dose: 200.0 mg/kg/injection, schedule: Q04DX002 (ip), vehicle: saline 108 % of control | endpoint: median survival time, dose: 400.0 mg/kg/injection, schedule: Q04DX002 (ip), vehicle: saline 96 % of control

NC(=O)C12CCCCC1CCC(=O)C2 (stereo not drawn)
inactive: [9] 93 % of control | [10] 96 % of control | [4] 90 % of control

COC(=O)c1ccccc1NC(=O)/C=C/C(=O)O
inactive: [11] 94 % of control | [3] 88 % of control | [1] 98 % of control | [5] 90 % of control | [2] 95 % of control

CC(C)(CO)C(O)C(=O)NC1CCCCC1 (stereo not drawn)
inactive: [12] 98 % of control | endpoint: mean survival time, dose: 100.0 mg/kg/injection, schedule: Q01DX009 (ip), vehicle: saline with Tween-80 102 % of control | [14] 102 % of control | endpoint: mean survival time, dose: 200.0 mg/kg/injection, schedule: Q01DX009 (ip), vehicle: saline with Tween-80 100 % of control | [13] 94 % of control | endpoint: mean survival time, dose: 400.0 mg/kg/injection, schedule: Q01DX009 (ip), vehicle: saline with Tween-80 97 % of control

O=[N+]([O-])c1ccc(Sc2ccncn2)c([N+](=O)[O-])c1
inactive: endpoint: median survival time, dose: 6.25 mg/kg/injection, schedule: Q01DX009 (ip), vehicle: saline with Tween-80 101 % of control | endpoint: median survival time, dose: 12.5 mg/kg/injection, schedule: Q01DX009 (ip), vehicle: saline with Tween-80 102 % of control | endpoint: median survival time, dose: 25.0 mg/kg/injection, schedule: Q01DX009 (ip), vehicle: saline with Tween-80 103 % of control | endpoint: median survival time, dose: 50.0 mg/kg/injection, schedule: Q01DX009 (ip), vehicle: saline with Tween-80 105 % of control | endpoint: median survival time, dose: 100.0 mg/kg/injection, schedule: Q01DX009 (ip), vehicle: saline with Tween-80 113 % of control

O=C1C=C(c2ccccc2)C(O)(c2ccccc2)/C1=C/c1ccccc1 (stereo not drawn)
inactive: [7] 87 % of control | [8] 88 % of control

CN=C(N)N(C)C
inactive: endpoint: mean survival time, dose: 100.0 mg/kg/injection, schedule: Q01DX001 (ip), vehicle: saline 101 % of control | endpoint: mean survival time, dose: 200.0 mg/kg/injection, schedule: Q01DX001 (ip), vehicle: saline 101 % of control | endpoint: mean survival time, dose: 400.0 mg/kg/injection, schedule: Q01DX001 (ip), vehicle: saline 95 % of control

COC(=O)C(C)C1(O)CCCCC1 (stereo not drawn)
inactive: [1] 97 % of control | [2] 95 % of control | endpoint: mean survival time, dose: 400.0 mg/kg/injection, schedule: Q04DX003 (ip), vehicle: saline with Tween-80 98 % of control

N#CC1c2ccccc2C=CN1C(=O)OCc1ccccc1 (stereo not drawn)
inactive: endpoint: mean survival time, dose: 100.0 mg/kg/injection, schedule: Q04DX003 (ip), vehicle: Klucel (hydroxypropylcellulose) (HPC) 91 % of control | endpoint: mean survival time, dose: 200.0 mg/kg/injection, schedule: Q04DX003 (ip), vehicle: Klucel (hydroxypropylcellulose) (HPC) 110 % of control | endpoint: mean survival time, dose: 400.0 mg/kg/injection, schedule: Q04DX003 (ip), vehicle: Klucel (hydroxypropylcellulose) (HPC) 106 % of control

OC(Cc1[nH]c2ccccc2c1C(O)(C(F)(F)F)C(F)(F)F)(C(F)(F)F)C(F)(F)F
inactive: endpoint: mean survival time, dose: 100.0 mg/kg/injection, schedule: Q01DX009 (ip), vehicle: other 101 % of control | endpoint: mean survival time, dose: 200.0 mg/kg/injection, schedule: Q01DX009 (ip), vehicle: other 110 % of control | endpoint: mean survival time, dose: 400.0 mg/kg/injection, schedule: Q01DX009 (ip), vehicle: other 94 % of control

CN(CCC#N)c1ccc(C(=C2C=CC(=Nc3ccccc3)c3ccccc32)c2ccc(N(C)CCC#N)cc2)cc1
inactive: [7] 97 % of control | [8] 101 % of control

CSc1ccc(NC(=O)Nc2nccs2)cc1
inactive: endpoint: mean survival time, dose: 100.0 mg/kg/injection, schedule: Q01DX009 (ip), vehicle: saline sonified 103 % of control | endpoint: mean survival time, dose: 200.0 mg/kg/injection, schedule: Q01DX009 (ip), vehicle: saline sonified 106 % of control | endpoint: mean survival time, dose: 400.0 mg/kg/injection, schedule: Q01DX009 (ip), vehicle: saline sonified 100 % of control

Oc1ccccc1OCCOCCOc1ccccc1O
inactive: endpoint: mean survival time, dose: 50.0 mg/kg/injection, schedule: Q04DX002 (ip), vehicle: other 100 % of control | endpoint: mean survival time, dose: 100.0 mg/kg/injection, schedule: Q04DX002 (ip), vehicle: other 88 % of control | endpoint: mean survival time, dose: 200.0 mg/kg/injection, schedule: Q04DX002 (ip), vehicle: other 103 % of control | endpoint: mean survival time, dose: 400.0 mg/kg/injection, schedule: Q04DX002 (ip), vehicle: other 103 % of control
